Experimental data taken from patent US20260317299A1, “PIKFYVE PROTEIN KINASE DEGRADATION AGENT AND USE THEREOF” (Shanghai Institute of Organic Chemistry, Chinese Academy of …, priority 2023, published 2026).

The molecules below were run against T1, PIKfyve (Homo sapiens, UniProt Q9Y2I7) (assay: Degradation of PIKfyve proteins in VCaP tumor cells (24 h, Western blot)). Settings: 37° C., compared with DMSO control, WB, read-out: DC50 (concentration that achieves 50% degradation activity).
T1 construct: endogenous in cells; host or cells: VCaP
T1 sequence (Q9Y2I7 whole entry): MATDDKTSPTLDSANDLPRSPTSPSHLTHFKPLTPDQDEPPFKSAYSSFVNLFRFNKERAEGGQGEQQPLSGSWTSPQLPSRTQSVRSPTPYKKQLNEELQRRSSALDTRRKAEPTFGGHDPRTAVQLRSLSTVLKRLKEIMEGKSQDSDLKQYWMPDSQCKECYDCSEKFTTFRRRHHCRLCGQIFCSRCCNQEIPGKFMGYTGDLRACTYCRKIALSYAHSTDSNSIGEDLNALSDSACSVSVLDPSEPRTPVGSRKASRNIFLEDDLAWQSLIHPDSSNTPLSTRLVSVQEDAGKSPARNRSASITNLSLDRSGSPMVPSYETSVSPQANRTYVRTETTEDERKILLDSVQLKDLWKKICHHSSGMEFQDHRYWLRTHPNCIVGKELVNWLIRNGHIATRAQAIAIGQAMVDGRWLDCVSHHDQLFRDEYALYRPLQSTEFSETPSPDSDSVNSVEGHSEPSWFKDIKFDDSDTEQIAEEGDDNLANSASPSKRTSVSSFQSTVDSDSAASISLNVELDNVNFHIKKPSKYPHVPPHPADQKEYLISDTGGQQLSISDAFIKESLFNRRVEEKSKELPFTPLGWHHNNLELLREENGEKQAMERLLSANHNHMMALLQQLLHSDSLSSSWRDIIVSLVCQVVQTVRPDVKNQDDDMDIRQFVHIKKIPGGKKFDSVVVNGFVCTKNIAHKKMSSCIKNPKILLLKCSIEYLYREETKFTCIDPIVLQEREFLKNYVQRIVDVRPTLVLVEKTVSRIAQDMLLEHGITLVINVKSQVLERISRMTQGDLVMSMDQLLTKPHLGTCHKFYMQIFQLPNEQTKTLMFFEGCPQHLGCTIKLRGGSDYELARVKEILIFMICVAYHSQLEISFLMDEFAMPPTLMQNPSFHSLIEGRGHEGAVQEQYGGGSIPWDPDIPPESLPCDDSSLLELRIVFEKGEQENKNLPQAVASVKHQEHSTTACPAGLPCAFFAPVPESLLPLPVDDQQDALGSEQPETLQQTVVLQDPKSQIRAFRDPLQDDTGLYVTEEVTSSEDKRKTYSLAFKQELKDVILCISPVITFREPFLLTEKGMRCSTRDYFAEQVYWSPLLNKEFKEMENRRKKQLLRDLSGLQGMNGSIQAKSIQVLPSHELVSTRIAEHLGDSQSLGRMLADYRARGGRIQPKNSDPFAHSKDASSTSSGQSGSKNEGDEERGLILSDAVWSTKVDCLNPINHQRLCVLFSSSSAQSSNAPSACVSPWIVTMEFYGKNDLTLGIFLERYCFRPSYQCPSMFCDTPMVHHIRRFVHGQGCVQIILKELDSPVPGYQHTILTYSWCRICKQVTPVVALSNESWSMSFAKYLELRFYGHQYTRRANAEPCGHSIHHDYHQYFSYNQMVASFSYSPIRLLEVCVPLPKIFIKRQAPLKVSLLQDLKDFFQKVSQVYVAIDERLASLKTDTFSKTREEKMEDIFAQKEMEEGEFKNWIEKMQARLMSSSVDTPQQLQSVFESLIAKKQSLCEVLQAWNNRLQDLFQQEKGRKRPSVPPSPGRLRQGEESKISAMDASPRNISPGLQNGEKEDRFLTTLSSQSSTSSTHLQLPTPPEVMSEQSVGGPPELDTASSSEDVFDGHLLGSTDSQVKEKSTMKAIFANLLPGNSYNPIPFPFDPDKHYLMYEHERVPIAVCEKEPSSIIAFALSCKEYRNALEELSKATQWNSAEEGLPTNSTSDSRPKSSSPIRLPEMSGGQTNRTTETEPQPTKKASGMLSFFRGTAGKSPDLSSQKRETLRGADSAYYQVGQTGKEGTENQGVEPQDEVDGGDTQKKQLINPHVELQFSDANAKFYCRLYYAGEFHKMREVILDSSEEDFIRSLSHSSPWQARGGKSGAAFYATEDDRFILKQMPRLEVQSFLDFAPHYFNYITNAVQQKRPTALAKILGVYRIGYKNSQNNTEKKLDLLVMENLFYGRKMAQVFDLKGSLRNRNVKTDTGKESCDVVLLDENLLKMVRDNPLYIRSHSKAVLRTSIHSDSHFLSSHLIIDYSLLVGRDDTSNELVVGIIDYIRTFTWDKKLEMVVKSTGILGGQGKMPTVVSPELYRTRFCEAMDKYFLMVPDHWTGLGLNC
Format: cell-based
Description: Method: 200 μL of cells at a density of 5×10^6 cells/ml were inoculated into a 6-well plate, and then different concentrations of drugs were added. The cells were treated at 37° C. for 24 h. The […] was collected and washed with PBS twice. Then, 100-200 μL of 1×SDS lysate was added, and the cell lysate was collected into a centrifuge tube. The cells were disrupted ultrasonically for 10-20 sec, and boiled for 10 min. Protein samples were subjected to SDS-PAGE electrophoresis at a voltage of 90 V, transferred to PVDF membranes at 110 V, blocked with 5% BSA for 4 h, incubated with primary antibodies (PIKfyve, GAPDH) at 4° C. overnight, and incubated with secondary antibodies (anti-Rabbit IgG or anti-Mouse IgG) at room temperature. The membranes were washed with TBST buffer, developed with an ECL developing solution, and then imaged to obtain protein band signals, with single-concentration WB results as shown in FIG. 1. Compared with the DMSO control group, the concentration that achieves 50% degradation activity is defined as DC50.

| SMILES | DC50 [nM] |
| --- | --- |
| Cc1cccc(-c2ccn(-c3cc(N4CCOCC4)nc(OC4CCN(c5ccc(N6CCN(c7cc8c(cc7F)C(=O)N(C7CCC(=O)NC7=O)C8=O)CC6)cc5)CC4)n3)n2)c1 (stereo not shown) [Example 89, 2-(2,6-Dioxopiperidin-3-yl)-5-fluoro-6-(4-(4-(4-((4-morpholino-6-(3-(m-tolyl)-1H-pyrazol-1-yl)pyrimidin-2-yl)oxy)piperidin-1-yl)phenyl)piperazin-1-yl)isoindoline-1,3-dione] | 100 to 10000 |
| Cc1cccc(/C=N/Nc2cc(N3CCOCC3)nc(OCCc3ccc(NC(=O)CCC(=O)N[C@H](C(=O)N4C[C@H](O)C[C@H]4C(=O)NCc4ccc(-c5scnc5C)cc4)C(C)(C)C)cc3)n2)c1 [Example 37, N^1—((S)-1-((2S,4R)-4-hydroxy-2-((4-(4-methylthiazol-5-yl)benzyl)carbamoyl)pyrrolidine-1-yl)-3,3-dimethyl-1-oxobutan-2-yl)-N^4-(4-(2-((4-(2-((E)-3-methylbenzylidene) hydrazino)-6-morpholinopyrimidin-2-yl)oxy)ethyl)phenyl)succinimide] | 100 to 10000 |
| Cc1cccc(-c2ccn(-c3cc(N4CCOCC4)nc(OCCc4ccc(N5CCN(CC6CCN(c7cc8c(cc7F)C(=O)N(C7CCC(=O)NC7=O)C8=O)CC6)CC5)cc4)n3)n2)c1 (stereo not shown) [Example 91, 2-(2,6-Dioxopiperidin-3-yl)-5-fluoro-6-(4-((4-(4-(2-((4-morpholino-6-(3-(m-tolyl)-1H-pyrazol-1-yl)pyrimidin-2-yl)oxy)ethyl)phenyl)piperazin-1-yl)methyl)piperidin-1-yl)isoindoline-1,3-dione] | 100 to 10000 |
| Cc1cccc(/C=N/Nc2cc(N3CCOCC3)nc(OCCc3ccc(NC(=O)CCCNC(=O)COc4cc(-c5scnc5C)ccc4CNC(=O)[C@@H]4C[C@@H](O)CN4C(=O)[C@@H](NC(=O)C4(F)CC4)C(C)(C)C)cc3)n2)c1 [Example 55, (2S,4R)-1-((S)-2-(1-fluorocyclopropane-1-carboxamido)-3,3-dimethylbutanoyl)-4-hydroxy-N-(2-(2-((4-((4-(2-((4-(2-((E)-3-methylbenzylidene)hydrazino)-6-morpholinopyrimidin-2-yl)oxy)ethyl)phenyl)amino)-4-oxobutyl)amino)-2-oxoethoxy)-4-(4-methylthiazol-5-yl)benzyl)pyrrolidine-2-carboxamide] | 1 to 100 |
| Cc1cccc(-c2ccn(-c3cc(N4CCOCC4)nc(OCCc4ccc(NC(=O)NC5CCN(C(=O)C[C@H](NC(=O)[C@@H]6C[C@@H](O)CN6C(=O)[C@@H](NC(=O)C6(F)CC6)C(C)(C)C)c6ccc(-c7scnc7C)cc6)CC5)cc4)n3)n2)c1 [Example 78, (2S,4R)-1-((S)-2-(1-fluorocyclopropane-1-carboxamido)-3,3-dimethylbutanoyl)-4-hydroxy-N—((S)-1-(4-(4-methylthiazol-5-yl)phenyl)-3-(4-(3-(4-(2-((4-morpholino-6-(3-(m-tolyl)-1H-pyrazol-1-yl)pyrimidin-2-yl)oxy)ethyl)phenyl)ureido)piperidin-1-yl)-3-oxopropyl) pyrrolidine-2-carboxamide] | 1 to 100 |
| Cc1cccc(-c2ccn(-c3cc(N4CCOCC4)nc(OCCc4ccc(-c5ccc(NC(=O)CC[C@H](NC(=O)[C@@H]6C[C@@H](O)CN6C(=O)[C@@H](NC(=O)C6(F)CC6)C(C)(C)C)c6ccc(-c7scnc7C)cc6)cc5)cc4)n3)n2)c1 [Example 88, (2S,4R)-1-((S)-2-(1-fluorocyclopropane-1-carboxamido)-3,3-dimethylbutanoyl)-4-hydroxy-N—((S)-1-(4-(4-methylthiazol-5-yl)phenyl)-4-((4′-(2-((4-morpholino-6-(3-(m-tolyl)-1H-pyrazol-1-yl)pyrimidin-2-yl)oxy)ethyl)-[1,1′-biphenyl]-4-yl)amino)-4-oxobutyl)pyrrolidine-2-carboxamide] | 1 to 100 |
| Cc1cccc(-c2ccn(-c3cc(N4CCOCC4)nc(OC4CCN(c5ccc(N6CCN(C(=O)C[C@H](NC(=O)[C@@H]7C[C@@H](O)CN7C(=O)[C@@H](NC(=O)C7(F)CC7)C(C)(C)C)c7ccc(-c8scnc8C)cc7)CC6)cc5)CC4)n3)n2)c1 [Example 84, (2S,4R)-1-((S)-2-(1-fluorocyclopropane-1-carboxamido)-3,3-dimethylbutanoyl)-4-hydroxy-N—((S)-1-(4-(4-methylthiazol-5-yl)phenyl)-3-(4-(4-(4-((4-morpholino-6-(3-(m-tolyl)-1H-pyrazol-1-yl)pyrimidin-2-yl)oxy)piperidin-1-yl)phenyl)piperazin-1-yl)-3-oxopropyl) pyrrolidine-2-carboxamide] | 1 to 100 |
| Cc1cccc(/C=N/Nc2cc(N3CCOCC3)nc(OCCc3ccc(NC(=O)CCCCCCCCC(=O)Nc4ccc5c(c4)CN(C4CCC(=O)NC4=O)C5=O)cc3)n2)c1 (stereo not shown) [Example 27, (E)-N^1-(2-(2,6-dioxopiperidin-3-yl)-1-oxoisoindolin-5-yl)-N^10-(4-(2-((4-(2-(3-methylbenzylidene)hydrazino)-6-morpholinopyrimidin-2-yl)oxy)ethyl)phenyl)decanediamide] | 1 to 100 |

Now from value to molecule:

| DC50 [nM] | SMILES |
| --- | --- |
| 1 to 100 | Cc1cccc(-c2ccn(-c3cc(N4CCOCC4)nc(OCCc4ccc(NC(=O)CCCCCNC(=O)COc5cc(-c6scnc6C)ccc5CNC(=O)[C@@H]5C[C@@H](O)CN5C(=O)[C@@H](NC(=O)C5(F)CC5)C(C)(C)C)cc4)n3)n2)c1 [Example 66, (2S,4R)-1-((S)-2-(1-fluorocyclopropane-1-carboxamido)-3,3-dimethylbutanoyl)-4-hydroxy-N-(4-(4-methylthiazol-5-yl)-2-(2-((6-((4-(2-((4-morpholino-6-(3-(m-tolyl)-1H-pyrazol-1-yl)pyrimidin-2-yl)oxy)ethyl)phenyl)amino)-6-oxohexyl)amino)-2-oxoethoxy)benzyl) pyrrolidine-2-carboxamide] |
| 1 to 100 | Cc1cccc(/C=N/Nc2cc(N3CCOCC3)nc(OCCc3ccc(NC(=O)CCCCCCCC(=O)N[C@H](C(=O)N4C[C@H](O)C[C@H]4C(=O)NCc4ccc(-c5scnc5C)cc4)C(C)(C)C)cc3)n2)c1 [Example 43, N^1—((S)-1-((2S,4R)-4-hydroxy-2-((4-(4-methylthiazol-5-yl)benzyl)carbamoyl)pyrrolidine-1-yl)-3,3-dimethyl-1-oxobutan-2-yl)-N^9-(4-(2-((4-(2-((E)-3-methylbenzylidene) hydrazino)-6-morpholinopyrimidin-2-yl)oxy)ethyl)phenyl)nonediamide] |
| 1 to 100 | Cc1cccc(/C=N/Nc2cc(N3CCOCC3)nc(OCCc3ccc(NC(=O)CNC(=O)COc4cc(-c5scnc5C)ccc4CNC(=O)[C@@H]4C[C@@H](O)CN4C(=O)[C@@H](NC(=O)C4(F)CC4)C(C)(C)C)cc3)n2)c1 [Example 54, (2S,4R)-1-((S)-2-(1-fluorocyclopropane-1-carboxamido)-3,3-dimethylbutanoyl)-4-hydroxy-N-(2-(2-((2-((4-(2-((4-(2-((E)-3-methylbenzylidene)hydrazino)-6-morpholinopyrimidin-2-yl)oxy)ethyl)phenyl)amino)-2-oxoethyl)amino)-2-oxoethoxy)-4-(4-methylthiazol-5-yl)benzyl)pyrrolidine-2-carboxamide] |
| 1 to 100 | Cc1cccc(/C=N/Nc2cc(N3CCOCC3)nc(OCCc3ccc(NC(=O)CCCCC(=O)N[C@H](C(=O)N4C[C@H](O)C[C@H]4C(=O)N[C@@H](C)c4ccc(-c5scnc5C)cc4)C(C)(C)C)cc3)n2)c1 [Example 46] |
| 1 to 100 | Cc1cccc(/C=N/Nc2cc(N3CCOCC3)nc(OCCc3ccc(NC(=O)CCC(=O)Nc4cccc5c4C(=O)N(C4CCC(=O)NC4=O)C5)cc3)n2)c1 (stereo not shown) [Example 32, (E)-N^1-(2-(2,6-dioxopiperidin-3-yl)-3-oxoisoindolin-4-yl)-N^4-(4-(2-((4-(2-(3-methylbenzylidene)hydrazino)-6-morpholinopyrimidin-2-yl)oxy)ethyl)phenyl)succinimide] |
| 1 to 100 | Cc1cccc(/C=N/Nc2cc(N3CCOCC3)nc(OCCc3ccc(NC(=O)CCCC(=O)N[C@H](C(=O)N4C[C@H](O)C[C@H]4C(=O)NCc4ccc(-c5scnc5C)cc4)C(C)(C)C)cc3)n2)c1 [Example 41, N^1—((S)-1-((2S,4R)-4-hydroxy-2-((4-(4-methylthiazol-5-yl)benzyl)carbamoyl)pyrrolidine-1-yl)-3,3-dimethyl-1-oxobutan-2-yl)-N^5-(4-(2-((4-(2-((E)-3-methylbenzylidene) hydrazino)-6-morpholinopyrimidin-2-yl)oxy)ethyl)phenyl)glutaramide] |
| 1 to 100 | Cc1cccc(-c2ccn(-c3cc(N4CCOCC4)nc(OC4CCN(c5ccc(NC(=O)NC6CCN(C(=O)C[C@H](NC(=O)[C@@H]7C[C@@H](O)CN7C(=O)[C@@H](NC(=O)C7(F)CC7)C(C)(C)C)c7ccc(-c8scnc8C)cc7)CC6)cc5)CC4)n3)n2)c1 [Example 82, (2S,4R)-1-((S)-2-(1-fluorocyclopropane-1-carboxamido)-3,3-dimethylbutanoyl)-4-hydroxy-N—((S)-1-(4-(4-methylthiazol-5-yl)phenyl)-3-(4-(3-(4-(4-((4-morpholino-6-(3-(m-tolyl)-1H-pyrazol-1-yl)pyrimidin-2-yl)oxy)piperidin-1-yl)phenyl)ureido)piperidin-1-yl)-3-oxopropyl)pyrrolidine-2-carboxamide] |
| 1 to 100 | Cc1cccc(/C=N/Nc2cc(N3CCOCC3)nc(OCCc3ccc(NC(=O)CCCCCCC(=O)Nc4ccc5c(c4)C(=O)N(C4CCC(=O)NC4=O)C5)cc3)n2)c1 (stereo not shown) [Example 30, (E)-N^1-(2-(2,6-dioxopiperidin-3-yl)-3-oxoisoindol-5-yl)-N^8-(4-(2-((4-(2-(3-methylbenzylidene)hydrazino)-6-morpholinopyrimidin-2-yl)oxy)ethyl)phenyl)octanediamide] |
